# Reference: PMC7377239, “Cardiovascular Effects of Polychlorinated Biphenyls and Their Major Metabolites” (Environmental Health Perspectives, 2020)
# Like-named read-outs stand apart in the source and are kept apart here.
# What was measured:
# [1] = system: iCell endothelial cells (human iPSC-derived ECs); test: Tube formation (tubulogenesis) assay in iCell endothelial cells, 18 h; format: cell-based; conditions: Homo sapiens, Endothelial cell, 18 hr; for activity at 0.1 µM: 0.10 µM
# Outline: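 iCell ECs (passages 1–5) seeded 7,500 cells/well on reduced-growth-factor Geltrex in starvation medium, exposed overnight at 37°C to compounds in triplicate concentration–response (0.5% DMSO vehicle). Calcein AM staining, 4× imaging, angiogenesis image analysis; readouts normalized to vehicle, four-parameter logistic fit, POD at 1 SD of vehicle; 100 μM assigned NOAEL if no response.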
# [2] = system: iCell endothelial cells (human iPSC-derived ECs); test: High-content imaging cytotoxicity in iCell endothelial cells, 24 h; format: cell-based; conditions: Homo sapiens, Endothelial cell, 24 hr; for viability at 0.1 µM / activity at 0.1 µM: 0.10 µM
# Outline: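 Human iPSC-derived endothelial cells (passages 1–5) were grown to a fibronectin-coated monolayer, then exposed 24 h at 37 °C with 0.5% DMSO vehicle. Staining was Hoechst 33342, MitoTracker Orange and calcein AM, read by high-content imaging. Point of departure came from 4-parameter logistic fits, with a 1-SD vehicle cutoff and 100 µM as the top concentration.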
# [3] = iPSC-EC tube formation, 0.00 µM control = 100.00, read-out: endo.mtl.18hr
# [4] = iPSC-EC tube formation, 0.00 µM control = 100.00, read-out: endo.tlps.18hr
# [5] = iPSC-EC tube formation, 0.00 µM control = 100.00, read-out: endo.tta.18hr
# [6] = iPSC-EC tube formation, 0.00 µM control = 100.00, read-out: endo.ttl.18hr
# [7] = iPSC-EC, 0.00 µM control = 100.00, read-out: endo.cyto.24hr
# [8] = iPSC-EC, 0.00 µM control = 100.00, read-out: endo.mito.24hr
# [9] = iPSC-EC, 0.00 µM control = 100.00, read-out: endo.mitoint.24hr
# [10] = iPSC-EC, 0.00 µM control = 100.00, read-out: endo.nma.24hr
# [11] = iPSC-EC, 0.00 µM control = 100.00, read-out: endo.tc.24hrs
compound,measurement,setting,value
Oc1ccc(-c2ccc(Cl)cc2)cc1 [4'-OH PCB3],activity at 0.01 µM,[1]; [3],87.5%
same,activity at 0.01 µM,[1]; [4],80.1%
same,activity at 0.01 µM,[1]; [5],97.5%
same,activity at 0.01 µM,[1]; [6],93.3%
same,activity at 0.1 µM,[1]; [3],89.4%
same,activity at 0.1 µM,[1]; [4],84.6%
same,activity at 0.1 µM,[1]; [5],89.9%
same,activity at 0.1 µM,[1]; [6],86.6%
same,activity at 1 µM,[1]; [3],90.3%
same,activity at 1 µM,[1]; [4],73.5%
same,activity at 1 µM,[1]; [5],82.7%
same,activity at 1 µM,[1]; [6],81.3%
same,activity at 10 µM,[1]; [3],55.5%
same,activity at 10 µM,[1]; [4],31.4%
same,activity at 10 µM,[1]; [5],35.4%
same,activity at 10 µM,[1]; [6],35%
same,activity at 100 µM,[1]; [3],49.2%
same,activity at 100 µM,[1]; [4],11.3%
same,activity at 100 µM,[1]; [5],0.34%
same,activity at 100 µM,[1]; [6],0.48%
same,minimal effective concentration,"[1]; iPSC-EC tube formation, top concentration 100.00 µM, read-out: endo.mtl.18hr POD",1.21 µM
same,minimal effective concentration,"[1]; iPSC-EC tube formation, top concentration 100.00 µM, read-out: endo.tlps.18hr POD",0.19 µM
same,minimal effective concentration,"[1]; iPSC-EC tube formation, top concentration 100.00 µM, read-out: endo.tta.18hr POD",1.16 µM
same,minimal effective concentration,"[1]; iPSC-EC tube formation, top concentration 100.00 µM, read-out: endo.ttl.18hr POD",1.12 µM
same,viability at 0.01 µM,[2]; [7],96.3%
same,activity at 0.01 µM,[2]; [8],96.6%
same,activity at 0.01 µM,[2]; [9],113%
same,activity at 0.01 µM,[2]; [10],100%
same,viability at 0.01 µM,[2]; [11],96.3%
same,viability at 0.1 µM,[2]; [7],95%
same,activity at 0.1 µM,[2]; [8],95.4%
same,activity at 0.1 µM,[2]; [9],105%
same,activity at 0.1 µM,[2]; [10],98.9%
same,viability at 0.1 µM,[2]; [11],95%
same,viability at 1 µM,[2]; [7],99.8%
same,activity at 1 µM,[2]; [8],99.9%
same,activity at 1 µM,[2]; [9],108%
same,activity at 1 µM,[2]; [10],97.4%
same,viability at 1 µM,[2]; [11],99.8%
same,viability at 10 µM,[2]; [7],104%
same,activity at 10 µM,[2]; [8],105%
same,activity at 10 µM,[2]; [9],119%
same,activity at 10 µM,[2]; [10],96%
same,viability at 10 µM,[2]; [11],104%
same,viability at 100 µM,[2]; [7],39.7%
same,activity at 100 µM,[2]; [8],40.3%
same,activity at 100 µM,[2]; [9],91.2%
same,activity at 100 µM,[2]; [10],101%
same,viability at 100 µM,[2]; [11],69.7%
same,minimal effective concentration,"[2]; iPSC-EC, top concentration 100.00 µM, read-out: endo.cyto.24hr POD",41.1 µM
same,minimal effective concentration,"[2]; iPSC-EC, top concentration 100.00 µM, read-out: endo.mito.24hr POD",41.1 µM
same,minimal effective concentration,"[2]; iPSC-EC, top concentration 100.00 µM, read-out: endo.mitoint.24hr POD",100 µM
same,minimal effective concentration,"[2]; iPSC-EC, top concentration 100.00 µM, read-out: endo.nma.24hr POD",100 µM
same,minimal effective concentration,"[2]; iPSC-EC, top concentration 100.00 µM, read-out: endo.tc.24hrs POD",52 µM
Oc1cc(Cl)cc(-c2cccc(Cl)c2)c1 [5-OH-PCB 11],minimal effective concentration,"[1]; endothelial cells (endo), tube formation mtl, read-out: POD endo.mtl.18hr",5.28 µM
same,minimal effective concentration,"[1]; endothelial cells (endo), tube formation tlps, read-out: POD endo.tlps.18hr",5.71 µM
same,minimal effective concentration,"[1]; endothelial cells (endo), tube formation tta, read-out: POD endo.tta.18hr",6.97 µM
same,minimal effective concentration,"[1]; endothelial cells (endo), tube formation ttl, read-out: POD endo.ttl.18hr",7.34 µM
same,minimal effective concentration,"[2]; endothelial cells (endo), cyto, read-out: POD endo.cyto.24hr",42.3 µM
same,minimal effective concentration,"[2]; endothelial cells (endo), mito, read-out: POD endo.mito.24hr",42.3 µM
same,minimal effective concentration,"[2]; endothelial cells (endo), mitoint, read-out: POD endo.mitoint.24hr",55 µM
same,minimal effective concentration,"[2]; endothelial cells (endo), nma, read-out: POD endo.nma.24hr",14.2 µM
same,minimal effective concentration,"[2]; endothelial cells (endo), tc, read-out: POD endo.tc.24hr",43.2 µM
